Each block holds one compound with its values, some of them ahead of it.
Test: apparent surfactant dissolution (solubility) in propellant, viewed with the naked eye
Type: physicochemical
Conditions: for Solubility of oleic acid in the propellant / Solubility of sorbitan monooleate in the propellant / Solubility of sorbitan trioleate in the propellant: ambient temperature (19.5-25.0° C.)
Procedure: A number of experiments were conducted to investigate the solubility of various surfactants in R-134a and R-152a. The apparent surfactant dissolution in each propellant was studied at ambient temperature (19.5-25.0° C.) by adding a known quantity of surfactant to a plastic-coated, pressure-resistant, clear glass aerosol bottle. A continuous flow valve was then crimped onto the bottle. A total of 10 grams of each propellant was filled into each aerosol bottle such that the surfactant concentration ranged from 0 to 5% w/w. After addition of propellant, the contents were sonicated for 10 mins and viewed with the naked eye for dissolution.

- solubility in R-152a compared with R-134a (R-152a versus R-134a): much higher
- solubility in R-152a compared with any other surfactant (R-152a, versus the other surfactants tested): much higher
- Solubility of oleic acid in the propellant (propellant R-134a): Up to 0.05 % w/w
- Solubility of oleic acid in the propellant (propellant R-152a): Up to 2.5 % w/w
Compound: CCCCCCCC/C=C\CCCCCCCC(=O)O [oleic acid]

- Solubility of sorbitan monooleate in the propellant (propellant R-134a): Up to 0.03 % w/w
- Solubility of sorbitan monooleate in the propellant (propellant R-152a): Up to 0.05 % w/w
Compound: sorbitan monooleate

- Solubility of sorbitan trioleate in the propellant (propellant R-134a): Up to 0.05 % w/w
- Solubility of sorbitan trioleate in the propellant (propellant R-152a): Up to 0.05 % w/w
Compound: sorbitan trioleate
